Results from US20250221410A1, “SUBSTITUTED 2-C-AZINES AND SALTS THEREOF, AND USE THEREOF AS HERBICIDAL ACTIVE SUBSTANCES” (BAYER AKTIENGESELLSCHAFT, priority 2022, published 2025).

How the values were obtained:
Format in all cases: in vivo
[1] = test system: AMARE: Amaranthus retroflexus; test: Pre-emergence herbicide efficacy at 1280 g/ha, AMARE; settings: visual scoring after about 3 weeks vs untreated controls
Method in brief: (§1)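 Compound applied pre-emergence in WP or EC form to the covering soil over sown seeds, in aqueous spray with 0.5% additive (600 L/ha water). After greenhouse culture for about 3 weeks, damage is rated visually from 0% (as control) to 100% (plants dead).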

[2] = test system: ALOMY: Alopecurus myosuroides; test: Post-emergence herbicidal efficacy at 1280 g/ha, ALOMY; settings: rated visually after about 3 weeks vs untreated controls, 100% = plants have died, 0% = like control plants
Method: (§2) Seeds of mono- and dicotyledonous weed plants were placed in plastic pots in sandy loam soil (doubly sown with in each case one species of mono- or dicotyledonous weed plants per pot), covered with soil and cultivated in a greenhouse under controlled growth conditions. 2 to 3 weeks after sowing, the test plants were treated at the one-leaf stage. The compounds of the invention, formulated in the form of wettable powders (WP) or as emulsion concentrates (EC), were applied to the green parts of the plants as aqueous suspension or emulsion with addition of 0.5% additive at a water application rate equivalent to 600 litres per hectare. After the test plants had been kept in the greenhouse under optimum growth conditions for about 3 weeks, the activity of the preparations was rated visually in comparison to untreated controls. For example, 100% activity=the plants have died, 0% activity=like control plants. Tables A1 to A12 below show the effects of selected compounds of the general formula (I) according to Table 1 on various harmful plants and at an application rate corresponding to 1280 g/ha, which were obtained by the trial procedure specified above.

SETVI: Setaria viridis [3] = test: Post-emergence herbicidal efficacy at 1280 g/ha, SETVI; settings: visual rating about 3 weeks after treatment vs untreated controls
Method in brief: (§3)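 Plants treated 2–3 weeks post-sowing, one-leaf stage, foliar spray of WP or EC preparations with 0.5% additive at a water rate equivalent to 600 L/ha. Kept under optimum greenhouse conditions ~3 weeks, then scored visually on a 0–100% scale.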

[4] = test system: ABUTH: Abutilon theophrasti; test: Pre-emergence herbicide efficacy at 1280 g/ha, ABUTH; settings: visual scoring after about 3 weeks vs untreated controls
Method in brief: as §1

STEME: Stellaria media [5] = test: Post-emergence herbicidal efficacy at 1280 g/ha, STEME; settings: visual rating about 3 weeks after treatment vs untreated controls
Method in brief: as §3

KCHSC: Kochia scoparia [6] = test: Post-emergence herbicidal efficacy at 1280 g/ha, KCHSC; settings: visual rating about 3 weeks after treatment vs untreated controls
Method in brief: as §3

VERPE: Veronica persica [7] = test: Pre-emergence herbicide efficacy at 1280 g/ha, VERPE; settings: visual scoring vs untreated controls
Method in brief: as §1

LOLRI: Lolium rigidum = test: Post-emergence herbicidal efficacy at 1280 g/ha, LOLRI; settings: visual rating about 3 weeks after treatment vs untreated controls
Method: as §2

[8] = test system: ECHCG: Echinochloa crus-galli; test: Pre-emergence herbicide efficacy at 1280 g/ha, ECHCG; settings: visual scoring after about 3 weeks vs untreated controls
Method in brief: as §1

[9] = test system: DIGSA: Digitaria sanguinalis; test: Pre-emergence herbicide efficacy at 1280 g/ha, DIGSA; settings: visual scoring after about 3 weeks vs untreated controls
Method in brief: as §1

SETVI: Setaria viridis [10] = test: Pre-emergence herbicide efficacy at 1280 g/ha, SETVI; settings: visual scoring vs untreated controls
Method in brief: as §1

[11] = test system: ECHCG: Echinochloa crus-galli; test: Post-emergence herbicidal efficacy at 1280 g/ha, ECHCG; settings: rated visually after about 3 weeks vs untreated controls, 100% = plants have died, 0% = like control plants
Method in brief: as §3

POAAN: Poa annua [12] = test: Post-emergence herbicidal efficacy at 1280 g/ha, POAAN; settings: visual rating about 3 weeks after treatment vs untreated controls
Method in brief: as §3

[13] = test system: ALOMY: Alopecurus myosuroides; test: Pre-emergence herbicide efficacy at 1280 g/ha, ALOMY; settings: visual scoring after about 3 weeks vs untreated controls
Text: Seeds of mono- and dicotyledonous weed plants were placed in plastic pots in sandy loam soil (doubly sown with one species each of mono- or dicotyledonous weed plants per pot) and covered with soil. The compounds of the invention, formulated in the form of wettable powders (WP) or as emulsion concentrates (EC), were then applied to the surface of the covering soil as aqueous suspension or emulsion with addition of 0.5% additive at a water application rate of 600 litres per hectare (converted). After the treatment, the pots were placed in a greenhouse and kept under good growth conditions for the test plants. After about 3 weeks, the efficacy of the preparations was scored visually in comparison with untreated controls as percentages. For example, 100% activity=the plants have died, 0% activity=like control plants. Tables C1 to C12 below show the effects of selected compounds of the general formula (I) according to Table 1 on various harmful plants and at an application rate corresponding to 1280 g/ha, which were obtained by the trial procedure specified above.

VERPE: Veronica persica [14] = test: Post-emergence herbicidal efficacy at 1280 g/ha, VERPE; settings: visual rating about 3 weeks after treatment vs untreated controls
Method in brief: as §3

[15] = test system: ABUTH: Abutilon theophrasti; test: Post-emergence herbicidal efficacy at 1280 g/ha, ABUTH; settings: rated visually after about 3 weeks vs untreated controls, 100% = plants have died, 0% = like control plants
Method in brief: as §3

[16] = test system: AMARE: Amaranthus retroflexus; test: Post-emergence herbicidal efficacy at 1280 g/ha, AMARE; settings: rated visually after about 3 weeks vs untreated controls, 100% = plants have died, 0% = like control plants
Method in brief: as §3

[17] = test system: DIGSA: Digitaria sanguinalis; test: Post-emergence herbicidal efficacy at 1280 g/ha, DIGSA; settings: rated visually after about 3 weeks vs untreated controls, 100% = plants have died, 0% = like control plants
Method in brief: as §3

STEME: Stellaria media [18] = test: Pre-emergence herbicide efficacy at 1280 g/ha, STEME; settings: visual scoring vs untreated controls
Method in brief: as §1

POAAN: Poa annua [19] = test: Pre-emergence herbicide efficacy at 1280 g/ha, POAAN; settings: visual scoring after about 3 weeks vs untreated controls
Method in brief: as §1

KCHSC: Kochia scoparia [20] = test: Pre-emergence herbicide efficacy at 1280 g/ha, KCHSC; settings: visual scoring after about 3 weeks vs untreated controls
Method in brief: as §1

[21] = test system: MATIN: Matricaria inodora; test: Pre-emergence herbicide efficacy at 1280 g/ha, MATIN; settings: visual scoring after about 3 weeks vs untreated controls
Method in brief: as §1

[22] = test system: MATIN: Matricaria inodora; test: Post-emergence herbicidal efficacy at 1280 g/ha, MATIN; settings: visual rating about 3 weeks after treatment vs untreated controls
Method: as §2

Cc1cccc(Oc2ncc(Cl)cc2F)c1Cc1ncc(Cl)cn1 [Example 1-66]
100%: Pre-emergence efficacy against AMARE [1] | Post-emergence efficacy against SETVI (SETVI: Setaria viridis [3]) | Pre-emergence efficacy against ABUTH [4] | Post-emergence efficacy against STEME (STEME: Stellaria media [5]) | Post-emergence efficacy against KCHSC (KCHSC: Kochia scoparia [6]) | Pre-emergence efficacy against VERPE in % (VERPE: Veronica persica [7]) | Pre-emergence efficacy against ECHCG [8] | Pre-emergence efficacy against DIGSA [9] | Pre-emergence efficacy against SETVI in % (SETVI: Setaria viridis [10]) | Post-emergence efficacy at 1280 g/ha against ECHCG in % [11] | Post-emergence efficacy against POAAN (POAAN: Poa annua [12]) | Post-emergence efficacy against VERPE (VERPE: Veronica persica [14]) | Post-emergence efficacy at 1280 g/ha against ABUTH in % [15] | Post-emergence efficacy at 1280 g/ha against AMARE in % [16] | Post-emergence efficacy at 1280 g/ha against DIGSA in % [17] | Pre-emergence efficacy against STEME in % (STEME: Stellaria media [18]) | Pre-emergence efficacy against POAAN (POAAN: Poa annua [19]) | Pre-emergence efficacy against KCHSC (KCHSC: Kochia scoparia [20])
90%: Post-emergence efficacy at 1280 g/ha against ALOMY in % [2] | Post-emergence efficacy against LOLRI (LOLRI: Lolium rigidum) | Pre-emergence efficacy against ALOMY [13]

Fc1cnc(Cc2ccccc2Oc2ncc(Cl)cn2)nc1 [Example 1-70]
90%: Pre-emergence efficacy against ABUTH [4] | Post-emergence efficacy against STEME (STEME: Stellaria media [5]) | Pre-emergence efficacy against VERPE in % (VERPE: Veronica persica [7]) | Post-emergence efficacy against MATIN [22] | Pre-emergence efficacy against ECHCG [8] | Post-emergence efficacy against VERPE (VERPE: Veronica persica [14]) | Post-emergence efficacy at 1280 g/ha against AMARE in % [16] | Pre-emergence efficacy against POAAN (POAAN: Poa annua [19])
100%: Pre-emergence efficacy against AMARE [1] | Pre-emergence efficacy against MATIN [21] | Pre-emergence efficacy against DIGSA [9] | Pre-emergence efficacy against SETVI in % (SETVI: Setaria viridis [10]) | Post-emergence efficacy at 1280 g/ha against ABUTH in % [15] | Pre-emergence efficacy against STEME in % (STEME: Stellaria media [18]) | Pre-emergence efficacy against KCHSC (KCHSC: Kochia scoparia [20])

Fc1cc(Cl)cnc1Cc1ccccc1SCCC(F)(F)F [Example 1-110]
100%: Pre-emergence efficacy against AMARE [1] | Post-emergence efficacy against STEME (STEME: Stellaria media [5]) | Post-emergence efficacy against POAAN (POAAN: Poa annua [12]) | Post-emergence efficacy against VERPE (VERPE: Veronica persica [14]) | Post-emergence efficacy at 1280 g/ha against AMARE in % [16] | Pre-emergence efficacy against STEME in % (STEME: Stellaria media [18])
90%: Pre-emergence efficacy against ABUTH [4] | Post-emergence efficacy against KCHSC (KCHSC: Kochia scoparia [6]) | Post-emergence efficacy against LOLRI (LOLRI: Lolium rigidum) | Post-emergence efficacy at 1280 g/ha against ABUTH in % [15] | Pre-emergence efficacy against POAAN (POAAN: Poa annua [19])

Fc1cc(Cl)cnc1Cc1ccccc1-n1cc(C(F)(F)F)cn1 [Example 1-130]
90%: Post-emergence efficacy at 1280 g/ha against ALOMY in % [2] | Post-emergence efficacy against SETVI (SETVI: Setaria viridis [3]) | Pre-emergence efficacy against VERPE in % (VERPE: Veronica persica [7]) | Pre-emergence efficacy against SETVI in % (SETVI: Setaria viridis [10]) | Post-emergence efficacy at 1280 g/ha against ECHCG in % [11] | Pre-emergence efficacy against POAAN (POAAN: Poa annua [19])
100%: Pre-emergence efficacy against AMARE [1] | Pre-emergence efficacy against ABUTH [4] | Post-emergence efficacy against STEME (STEME: Stellaria media [5]) | Post-emergence efficacy against KCHSC (KCHSC: Kochia scoparia [6]) | Post-emergence efficacy against POAAN (POAAN: Poa annua [12]) | Post-emergence efficacy against VERPE (VERPE: Veronica persica [14]) | Post-emergence efficacy at 1280 g/ha against ABUTH in % [15] | Post-emergence efficacy at 1280 g/ha against AMARE in % [16]
